Laboratory results as given in a melting point compilation (Tetko et al.; mined from patent text by program, amines drawn as free bases though some values may be those of a salt).

melting point [°C]	SMILES
256	O=C1NC(=O)C(c2c[nH]c3ccccc23)=C1c1ccccc1
145	CC12CCC(C1)C1(C)Oc3ccc(C=O)cc3C21C (configuration not stated)
184 to 187	COC(=O)c1cc2cc(C(=O)c3cccs3)c(Cl)c(Cl)c2o1
149 to 150	Cc1nc2cccc3n(CCCCCNS(=O)(=O)C(F)(F)F)c(=O)c1n23
221 to 222	Cc1cc(=O)c(-c2ccc(Cl)cc2)c(C)n1C
153 to 154	Clc1ccn2cc(Cl)nc2c1
91 to 93	CC(C)[C@H](NC(=O)N(C)Cc1ccccn1)C(=O)N[C@@H](Cc1ccccc1)[C@@H](O)[C@@H](O)[C@H](Cc1ccccc1)NC(=O)OC(C)(C)C
191 to 192	NC(=O)c1cccc(-c2ccnc3cc(Cc4cccc(C(F)(F)F)c4)sc23)c1
136 to 142	Nc1nc(-n2cc(C(=O)O)c(=O)c3cc(F)c(NCCCO)c(Cl)c32)c(F)cc1F
228 to 230	c1cnc2[nH]cc(CN3CCc4ccc(-c5ccsc5)cc4C3)c2c1
139 to 140	CC(=O)N1CCC(c2nc3cccc4c3n2CCC4)CC1
138 to 140	CC(Cl)(Cl)C(NC(=O)c1cc(Cl)cc(Cl)c1)NC(=NC#N)Nc1ccc(Cl)nc1 (configuration not stated)
126 to 128	CCOC(=O)C1=C(C)NC(C#N)=C(C(=O)OCC)C1c1ccccc1[N+](=O)[O-] (configuration not stated)
120 to 125	Cc1cc(F)ccc1C(=Cc1nnnn1C)c1ccc(F)cc1C
45 to 48	CCC(CC)Nc1c([N+](=O)[O-])cc(C)c(COC(=O)CCl)c1[N+](=O)[O-]
181 to 183	Cc1ccc(Sc2cncc3sc(C(N)=S)cc23)cc1
216 to 217	CC1(C)CCC(C)(C)c2cc(C(=O)C(=O)Nc3ccc(C(=O)O)cc3)ccc21
89 to 90	CCCC(c1ccccc1OCc1ccc(Cl)cc1Cl)n1ccnc1 (configuration not stated)
150 to 152	COc1ccc(C2CCN(c3c(C)c(C)c4c(c3C)C(O)(c3ccc(F)cc3)C(C)(C)O4)CC2)cc1OC (configuration not stated)
58 to 61	CC(O)CCCCCCCc1ccc(O)c(O)c1 (configuration not stated)
303 to 304	N#Cc1ccc(-c2cccc(-c3nc4cc(C#N)ccc4[nH]3)c2)cc1
240 to 242	COC(=O)c1ccc2c(nc(C)n2C)c1C1=NC(C)(C(C)C)C(=O)N1 (configuration not stated)
86	CC=CCC1C(=O)c2cc(OC)c(Cl)cc2C1(C)C (racemic)
170 to 172	Fc1ccc(-c2c[nH]c([C@@H](NC3CCC3)C3CCCCC3)n2)cc1

melting point [°C]	SMILES
139 to 141	CC(Oc1ccc([N+](=O)[O-])cc1)C(=O)O (configuration not stated)
236 to 238	O=C(Cc1ccccc1)NCc1cccc2c1CN(C1CCC(=O)NC1=O)C2=O (configuration not stated)
237 to 239	CSCc1nn(-c2c(Cl)cc(C(F)(F)F)cc2Cl)nc1C=NC(C#N)=C(N)C#N
194 to 195	Cc1ccc(-c2cc(Br)c3c(c2)CCC(=O)N3)c(C)n1
100 to 106	CN1C(=O)CC[C@]2(C)c3ccc(-c4cc(C(F)(F)F)nc5c(C(F)(F)F)cccc45)cc3CC[C@@H]12
108 to 109	CC(=O)O[C@H](CCc1ccc([N+](=O)[O-])cc1)C(=O)O
178 to 179	Nc1nsc(Nc2c(Cl)cccc2Cl)n1
203 to 204	Cc1cc2c(C=O)c3ccccc3c(C=O)c2cc1C
80 to 83	N#CCc1cn(Nc2ccncc2)c2ccccc12
213 to 216	O=C(ON1C(=O)CCC1=O)c1ccc(-c2ccc(S(=O)(=O)N(CCO)CCO)cc2)[nH]c1=O
75 to 76	COc1cc(N2CCC(N3CCN(C(=O)OCc4ccccc4)CC3)CC2)ccc1Nc1ncc2ccc(-c3ccccc3OC)n2n1
158 to 160	N#CC(N)=C(C#N)NCc1ccc(Cl)c(Cl)c1
154	COc1ccc(CCN(C)CCc2ccc(NC(=O)c3cccc4c(=O)c5ccccc5sc34)cc2)cc1OC
60 to 63	Cc1cn(CCC(=O)N(C)C)nc1-c1ccccc1
147 to 148	COc1ccc(C2CC(=O)CCC2[N+](=O)[O-])cc1OC (configuration not stated)
289	O=C(NC1=Nc2cc(O)ccc2C2=NCCN12)c1cccnc1
108 to 109	C=CCn1ccc(=O)[nH]c1=O
119 to 121	O=C(NCc1cccnc1)c1ccc2n1Cc1ccccc1N(C(=O)c1ccc(-c3ccccc3CO)cc1)C2
184	CS(=O)(=O)C(=C1CN(C(c2ccccc2)c2ccccc2)C1)c1cccc([N+](=O)[O-])c1
202 to 203	Cc1ccc(C)c(NC(=O)NCC2(c3ccccc3)CCCCC2)c1
177 to 179	C1=C(CCc2ccccc2)CCN(Cc2nc3ccccc3[nH]2)C1
115 to 117	Cc1ccccc1C(=O)c1ccsc1C(=O)O
156 to 157	CC(C)n1nc(-c2ccc(O)cc2)c2cccc(C(F)(F)F)c21
142 to 143	CS(=O)(=O)c1ccc(C2=C(c3ccccc3)C(=O)OC23CCCC3)cc1

melting point [°C]	SMILES
96 to 98	CCCCCOC(=O)c1ccc(S(N)(=O)=O)cc1
211 to 212	S=C1NCCCN1c1ccccc1
225 to 226	CC(=O)NCc1ccc(CN2CCN(c3ccc(NC(C)=O)cc3)CC2)cc1
188	CC(C)(c1cc(Cl)cc([N+](=O)[O-])c1O)c1cc(Cl)cc([N+](=O)[O-])c1O
70 to 72	COC(=O)C1CNCCN1C(=O)/C=C/c1ccc(Sc2ccc3c(c2)OCCO3)c(C(F)(F)F)c1 (configuration not stated)
> 200	N=C(N)c1ccc(C(=O)N[C@@H](Cc2ccccc2)C(=O)c2ccc(OCC(=O)O)cc2)cc1
206 to 208	CCc1ccc2c(c1)C=Cc1cc(C)ccc1C2c1cn(-c2ccnc(NCC(=O)Nc3ncc(CC(=O)O)s3)n2)c(=O)[nH]c1=O (configuration not stated)
181	COc1cccc(CCN2C(=O)c3c(C)c(C)c(C)c(C)c3C2(O)c2ccc(F)cc2)c1 (configuration not stated)
155	CON1C=C2N=NC3=C(N2C1)N(c1cccc(Cl)c1)CC(C1CC1)=C3
120 to 121	CC1(C)C(=O)Oc2ccc(OS(C)(=O)=O)cc21
138	CCOC(=O)c1c(C)n(-c2ccc(N(CC)CC)cc2)c(C)c(C(=O)OCC)c1=O
89 to 91	COc1ccc(S(=O)(=O)C2(C(=O)NO)CCCC2)cc1
150 to 151	CCN(CC)CC1COCCN1CCNC(=O)N1c2ccccc2C(=O)Nc2cccnc21 (configuration not stated)
322 to 324	O=C(O)c1cn2c3c(c(Cl)c(F)cc3c1=O)SCC2
135 to 137	COC(=O)C[C@@H](CC(=O)/C=C/c1c(-c2ccc(F)cc2)c(-c2ccc(F)cc2)c(C(=O)Nc2cccc(C(=O)N(C)C)c2)n1C(C)C)O[Si](C)(C)C(C)(C)C
108 to 109	CC(C)(O)CCCCCc1cccc(C=Cc2cc(CO)cc(CO)c2)c1
45	COC1=C(OC)C(=O)C(CCCCCCCCCO)=C(C)C1=O
133	COc1ccc2ccc3[nH]c4ccc5ccc(OC)cc5c4c3c2c1
114 to 116	O=Cc1ccc2c(c1)Sc1ccccc1C=C2
> 250	O=C1Cc2cnccc2N1
229	CN1CCN(S(=O)(=O)c2cccc(NC(=O)c3cnn4c(C(F)F)cc(-c5ccc(Cl)c(Cl)c5)nc34)c2)CC1
182 to 187	Cc1cc2cc(CN3CCCC3)cnc2cc1NC(=O)c1ccc(-c2ccc(F)cc2)cc1
110	O=c1[nH]cccc1Cc1cccc(F)c1
100 to 103	CN1C(=O)CCC2(C)c3ccc(Sc4ccccc4F)cc3CCC12 (single isomer, unassigned; (+))

melting point [°C]	SMILES
234 to 236	CC(=O)NC1=C(C#N)C(c2cccc([N+](=O)[O-])c2)=C2C=Cc3ccccc3C2O1 (configuration not stated)
94	O=C(O)CCCc1cccc(C(=O)c2ccc(Cl)cc2)c1
70 to 78	CCOC(=O)c1c(N(C(=O)OC(C)(C)C)C(=O)OC(C)(C)C)sc(C)c1C
146	COC1(c2csc(Sc3ccc(/C(C)=N/O)cc3)n2)CCOCC1
267 to 268	O=C(O)c1cccnc1-c1ccc2[nH]nc(Nc3nccs3)c2c1
58 to 60	Cc1cccc(NC(=O)CS)c1
205 to 206	Clc1ccc([C@@H]2CNc3c(ccc4ccccc34)S2)cc1
> 250	Cn1nc(-c2nc(C(N)=O)c(N)nc2-c2ccccc2)ccc1=O
65 to 66	COCc1nc(C(C)(C)C)c[nH]1
166 to 167	COc1ccc(C(=O)N2CC[C@H](O)C2=O)cc1OCc1ccccc1
266 to 267	Nc1c(C(=O)c2ccncc2)[nH]c2cc(Cl)ccc12
158 to 160	O=C1Cc2cccc(Oc3cccc4ccccc34)c2N1
175 to 177	NCCCCn1c(-c2ccccc2)nc2c(N)nc3ccccc3c21
293	N#Cc1c(N2CCN(C(=O)c3ccco3)CC2)c2cc(F)cnc2n(CC(=O)c2ccccc2)c1=O
240 to 242	COC(=O)c1ccc(C(=O)NS(=O)(=O)c2ccc(C(=O)NCCCc3ccccc3)cc2)cn1
146 to 149	CCOc1cc(Cc2cnc(N)nc2N)cc(OCC)c1-c1ccc(CNCC(F)(F)F)cc1
200 to 202	CC(C)C1(CO)Cc2cc(OCC(=O)O)c(Cl)c(Cl)c2C1=O (configuration not stated)
79.5 to 82.4	CSc1ncc2c(n1)N(c1ccccc1)C(=O)N(c1ccccc1Cl)C2
147 to 148	CCc1ccc2c(=O)c(CO)cn(C)c2c1
227 to 229	Cc1nc2cccc(OCC(C)(C)C(=O)NC3CC3)c2c(N)c1C(=O)O
142 to 144	CC1CN(c2ccccc2)N=C1NC(=O)C(F)(F)F (configuration not stated)
238 to 240	CNC(=O)c1ccccc1Nc1nc(Nc2ccc3c(c2)CCCC(=O)N3C)ncc1Br

SMILES	melting point [°C]
O=C1[C@@H]2[C@H](O)CCN2C(=O)N1c1ccc(Br)c2ccccc12 (relative stereo)	204 to 206
CC[C@H]1C(=O)C[C@@H]2C[C@H]1OO[C@@]2(/C=C/C(=O)c1ccc(Cl)cc1)CC	127
CCNC(CO)Cc1cc(OC)cc(OC)c1 (configuration not stated)	82 to 83
